Data published in ChEMBL document CHEMBL1201862, “PubChem BioAssay data set” (2004).
Activity calls are given as the source filed them.

What was measured:
[1] = target: T1, Short transient receptor potential channel 4 (Mus musculus, UniProt Q9QUQ5); experiment: calcium entry via TRPC4 opening agents – cell-based, HEK293 TRPC4/mu-opioid, Fluo-4 calcium, dose response (AID 434937); assay type: functional
T1 sequence (Q9QUQ5 whole entry): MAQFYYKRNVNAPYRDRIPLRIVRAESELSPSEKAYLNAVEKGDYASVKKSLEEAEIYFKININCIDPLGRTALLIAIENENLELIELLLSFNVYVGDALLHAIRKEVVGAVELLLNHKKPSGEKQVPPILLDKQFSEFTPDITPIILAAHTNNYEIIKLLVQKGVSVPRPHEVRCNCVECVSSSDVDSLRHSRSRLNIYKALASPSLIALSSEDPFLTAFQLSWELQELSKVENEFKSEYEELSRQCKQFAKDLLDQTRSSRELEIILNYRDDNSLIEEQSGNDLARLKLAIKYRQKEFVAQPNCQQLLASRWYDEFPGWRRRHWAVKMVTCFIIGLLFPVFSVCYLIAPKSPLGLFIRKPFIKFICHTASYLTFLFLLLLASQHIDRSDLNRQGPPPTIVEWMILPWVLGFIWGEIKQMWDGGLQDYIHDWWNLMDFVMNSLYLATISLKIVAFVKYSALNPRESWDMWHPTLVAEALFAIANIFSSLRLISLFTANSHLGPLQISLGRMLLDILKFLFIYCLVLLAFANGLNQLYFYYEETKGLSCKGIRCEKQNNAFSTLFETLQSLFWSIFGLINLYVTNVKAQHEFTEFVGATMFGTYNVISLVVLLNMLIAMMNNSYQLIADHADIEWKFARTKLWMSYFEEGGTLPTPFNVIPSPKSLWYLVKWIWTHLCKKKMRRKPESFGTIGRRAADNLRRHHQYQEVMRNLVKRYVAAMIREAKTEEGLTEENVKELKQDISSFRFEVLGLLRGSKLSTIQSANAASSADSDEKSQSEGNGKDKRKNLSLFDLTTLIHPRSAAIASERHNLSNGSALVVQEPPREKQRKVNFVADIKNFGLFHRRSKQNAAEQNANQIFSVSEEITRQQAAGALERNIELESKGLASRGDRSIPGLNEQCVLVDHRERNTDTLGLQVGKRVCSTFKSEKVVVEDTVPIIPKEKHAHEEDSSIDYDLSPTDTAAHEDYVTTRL

[2] = microbe, parasite or virus in culture; assay type: functional; details: Mycobacterium tuberculosis
[3] = target: T2, Ubiquitin-conjugating enzyme E2 N (Homo sapiens, UniProt P61088); assay type: functional;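 also: Dose-response confirmation in a TR-FRET assay detecting UBC13-driven polyubiquitin chain formation, inhibition measured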
T2 sequence (P61088 whole entry): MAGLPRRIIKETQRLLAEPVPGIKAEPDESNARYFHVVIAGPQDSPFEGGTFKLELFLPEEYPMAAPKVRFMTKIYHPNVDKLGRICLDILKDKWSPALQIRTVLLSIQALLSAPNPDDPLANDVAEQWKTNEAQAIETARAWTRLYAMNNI

cells [4] = assay type: functional
[5] = target: T3, High affinity choline transporter 1 (Homo sapiens, UniProt Q9GZV3); experiment: human choline transporter blockers, potency – cell-based, 5-point CRC, membrane potential dye, dose response (AID 504840); assay type: functional
T3 sequence (Q9GZV3 whole entry): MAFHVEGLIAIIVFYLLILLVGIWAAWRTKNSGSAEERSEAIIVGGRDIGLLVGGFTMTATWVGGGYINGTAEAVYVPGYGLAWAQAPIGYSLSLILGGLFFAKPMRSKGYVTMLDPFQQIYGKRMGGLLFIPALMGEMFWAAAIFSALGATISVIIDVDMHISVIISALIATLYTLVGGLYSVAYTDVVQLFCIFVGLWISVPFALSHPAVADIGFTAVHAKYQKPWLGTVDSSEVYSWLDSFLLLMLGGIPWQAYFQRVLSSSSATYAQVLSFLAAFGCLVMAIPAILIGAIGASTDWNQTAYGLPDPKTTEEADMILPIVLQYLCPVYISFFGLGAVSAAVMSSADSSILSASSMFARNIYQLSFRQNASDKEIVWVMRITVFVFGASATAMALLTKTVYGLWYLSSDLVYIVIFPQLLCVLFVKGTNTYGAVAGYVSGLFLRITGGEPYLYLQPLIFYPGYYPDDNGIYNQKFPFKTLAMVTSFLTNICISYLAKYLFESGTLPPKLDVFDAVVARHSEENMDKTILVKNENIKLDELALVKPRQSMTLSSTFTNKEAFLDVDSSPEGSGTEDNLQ

Melanocortin receptor 4 = Melanocortin receptor 4 (Homo sapiens, UniProt P32245); assay type: functional, cell-based;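 also: Cell-based assay with luminescence read-out, confirmatory dose-response testing for agonist activity of biased ligands at MC4R; human U2OS cells with tagged receptor and beta-arrestin; potency of agonists that increase receptor coupling to beta-arrestin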
Sequence of Melanocortin receptor 4 (P32245 whole entry): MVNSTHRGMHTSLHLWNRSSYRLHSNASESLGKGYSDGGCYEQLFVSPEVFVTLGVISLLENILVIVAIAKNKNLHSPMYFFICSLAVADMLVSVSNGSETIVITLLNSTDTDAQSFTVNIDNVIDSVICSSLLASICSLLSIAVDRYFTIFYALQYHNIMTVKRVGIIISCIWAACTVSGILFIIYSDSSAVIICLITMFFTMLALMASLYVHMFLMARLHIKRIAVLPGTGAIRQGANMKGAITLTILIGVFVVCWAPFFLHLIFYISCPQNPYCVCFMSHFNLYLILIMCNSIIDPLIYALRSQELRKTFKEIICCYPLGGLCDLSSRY

HEK293 = experiment: EBV LMP1 TES2 canonical NF-kB signalling blockers – cell-based, HEK293, luciferase, cherry-pick, dose response (AID 588343); assay type: functional; details: Homo sapiens
[6] = target: T4, Calpain-2 catalytic subunit (Sus scrofa, UniProt P43367); experiment: m-calpain protease blockers, concentration series – biochemical, fluorogenic peptide substrate, dose response (AID 1420); assay type: functional
T4 sequence (P43367 whole entry): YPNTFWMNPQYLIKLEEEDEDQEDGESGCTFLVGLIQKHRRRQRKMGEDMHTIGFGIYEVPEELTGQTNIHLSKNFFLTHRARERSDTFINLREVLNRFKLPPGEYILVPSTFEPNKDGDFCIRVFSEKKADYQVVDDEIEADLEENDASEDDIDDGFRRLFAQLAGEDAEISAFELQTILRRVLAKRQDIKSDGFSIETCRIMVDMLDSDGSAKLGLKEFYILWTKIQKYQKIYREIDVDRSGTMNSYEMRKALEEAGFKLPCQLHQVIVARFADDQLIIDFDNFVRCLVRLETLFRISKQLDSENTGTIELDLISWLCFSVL

cells [7] = assay type: functional, cell-based
cells [8] = assay type: functional, cell-based; remark: listed apart in the source
[9] = blockers of bursicon-stimulated LGR2 cAMP reporter – cell-based, HEK293, CRE-luciferase reporter, cherry pick, set 2, dose response (AID 743343); assay type: functional;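 also: transfected cells were stimulated with diluted bursicon conditioned medium after compound addition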
[10] = blockade of melanocortin 4 receptor signaling – cell-based, plate reader, cherry pick, counter-screen for LGR2 antagonist project, dose response (AID 743444); assay type: functional;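 also: transfected HEK 293 cells stimulated with alpha-MSH peptide; potency of inhibitors of the alpha-MSH evoked signal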
Streptococcus = experiment: GAS UMAA2166 growth inhibition – luminescence, BacTiterGlo, counter-screen for streptokinase expression inhibitor project, dose response (AID 1915); assay type: functional, organism-based;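 also: potency for reduction of bacterial viability or growth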
[11] = tested on: Streptococcus sp. 'group A'; experiment: Streptococcus pyogenes SK(-)GAS viability under kanamycin – luminescence, BacTiterGlo, confirmation, counter-screen for streptokinase expression inhibitor project, dose response (AID 1900); assay type: functional, organism-based
[12] = target: T1, Short transient receptor potential channel 4; experiment: block of DAMGO-driven TRPC4 calcium entry – cell-based, HEK293 TRPC4/mu-opioid, Fluo-4 calcium, dose response (AID 434942); assay type: functional;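 also: potency of inhibitors blocking the TRPC4 calcium response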

With `COc1ccc(C(=O)C2CCCN(C3Cc4ccccc4C3)C2)cc1OC` (centres undefined) the EC50 [1] was 1.68 µM (active).

In the case of `CCN1CCN(c2ccc(S(=O)(=O)N3CCOCC3)cc2NC(=O)/C=C/c2ccc(OC)cc2OC)CC1`, the EC50 [1] is reported as 2.99 µM (active).

With `O=C1Nc2cc(C(=O)NCCCN3CCOCC3)ccc2S/C1=C/c1cccc(Cl)c1` the CC50 [2] was > 40 µM (active), the IC50 [3] was > 20 µM (inactive) and the IC50 (cells [4]) was 27.8 µM (active).

In the case of `CC1CCCCC1NC(=O)c1ccc(S(=O)(=O)N2CCCC2)cc1` (centres undefined), the IC50 [5] is reported as 13.2 µM (active).

With `COc1ccc(-c2oc3ccc(-c4ccc5c(c4)OCO5)cc3c2C#CC2(O)CCCCC2)cc1` the EC50 (Melanocortin receptor 4) was > 89.2 µM (inactive).

In the case of `COc1cc(C(=S)N2CCOCC2)cc(OC)c1OC(=O)c1ccc(F)cc1`, the AC50 (HEK293) is reported as > 350 µM (inactive).

For `CCCN(CCC)CCN=C(S)Nc1ccc2nc3n(c(=O)c2c1)CCCCC3`, the EC50 [1] was 0.299 µM (active).

With `COc1ccccc1C(=O)Nc1ccc(C(=O)c2ccccc2)cc1` the IC50 [6] was 35.2 µM (not active).

With `O=C(Cn1ncc2c3ccccc3n(Cc3ccccc3F)c2c1=O)NCCN1CCOCC1` the EC50 (cells [7]) was > 350 µM (not active), the EC50 (cells [8]) was > 350 µM (not active) and the IC50 [5] was 12 µM (active).

For `COc1ccc(S(=O)(=O)N2CCCCN3[C@H](CO)[C@H](c4ccc(-c5cccnc5)cc4)[C@@H]3C2)cc1`, the AC50 [9] was 20 µM (active) and the AC50 [10] was 25.6 µM (active).

In the case of `Cn1nc(C(=O)NNc2c(F)c(F)cc(F)c2F)c2ccccc2c1=O`, the IC50 [6] is reported as 5.53 µM (not active).

In the case of `CC1Cc2ccccc2N1C(=S)NC(=O)c1ccco1` (centres undefined), the IC50 [6] is reported as 0.535 µM (not active).

For `CC(C)C(=O)Nc1ccc(C(=O)N/N=C/c2cc(Br)cc(Br)c2O)cc1`, the EC50 (Streptococcus) was 2.04 µM (active), the AC50 (HEK293) was 16.7 µM (active) and the EC50 [11] was 1.65 µM (active).

In the case of `CCCOc1cccc(C(=O)NCCNC(=O)c2ccco2)c1`, the EC50 [12] is reported as 2.99 µM (active).

With `FC(F)Oc1ccccc1N=C(S)Nc1cccc(Cl)c1Cl` the EC50 [12] was 7.5 µM (active).

For `CC(C)C(=O)Nc1ccc(C(=O)Nc2nnc(C(C)(C)C)s2)cc1`, the EC50 [12] was 0.237 µM (active).

With `C=CCn1c(CCNC(=O)c2ccco2)nc2ccccc21` the EC50 [1] was 1.68 µM (active).
